# In patent US8987209B2, “N-carboxyalkyl-auristatin and the use thereof” (Seattle Genetics, Inc., priority 2010, dated 2015):
# Square brackets hold non-standard residues; d marks the D form. Peptide text beside a SMILES is read from it. * marks the point of attachment. NMeVal(N-(CH2)3COOH) = CC(C)[C@@H](C(=O)*)N(C)CCCC(=O)O; Dolaproine = CO[C@@H]([C@@H]1CCCN1)[C@@H](C)C(=O)O; Dil = CC[C@H](C)[C@H](NC)[C@@H](CC(=O)O)OC; X3 = CC(C)[C@@H](C(=O)*)N(C)CCCCCC(=O)O; NMe(benzyl) = CN(Cc1ccccc1)*; X4 = C1C2CC3CC1CC(CO*)(C2)C3; X6 = C1C2CC3CC1CC(O*)(C2)C3; X2 = c1ccc2c(CO*)cccc2c1; NHBn = c1ccc(CN*)cc1; OBn = c1ccc(CO*)cc1; OtBu = CC(C)(C)O*
# How the values were obtained:
# [1] = tested on: human renal carcinoma cell line 786-0; assay: Anti-proliferative effect on renal cell carcinoma 786-0 cell line (MTT assay); format: cell-based; settings: Homo sapiens, 786-0 cells, incubation 48 to 96 hours, serum free medium or 2% FCS
# Method: B-1. Determination of Anti-proliferative Effects of Renal Cell Carcinoma 786-0 Cell Line:
# A defined number of cells of the human renal carcinoma cell line 786-0 were cultured in a 96 well micro titer plate in rich medium (2500 or 7.000 cells/well) and then incubated over night at 37° C./5% CO2. After 18 hours the seed medium was replaced by a serum free medium or medium with 2% FCS. The treatment began with measuring out the respective test substances in varying concentrations (10^−5 M to 10^−14 M). Incubation times of between 48 hours and 96 hours were chosen. The proliferation was determined by means of the MTT assay (ATCC, Manassas, Va., USA, catalogue no. 30-1010K). After completion of incubation period the MTT reagent was incubated with the cells for 4 hours before lysis occurred over night by measuring out the detergent. The created stain was detected at 570 nm. The proliferation of the cells, which were treated identically to the other cells but without the test substance was defined as the 100% value. The data obtained from this test represent triple determinations and at least two experiments had been carried out independently of each other.
# HT-29 wt cell line = assay: Anti-proliferative effect on HT-29 wt cell line (MTT assay); format: cell-based, human; settings: Homo sapiens, HT-29 wt cells, incubation 48 to 96 hours, medium with 10% FCS
# Method: B-2. Determination of Anti-proliferative Effects of HT-29 wt Cell Line:
# After 18 hours the seed medium was replaced by a fresh medium with 10% FCS. The treatment started with measuring out the respective test substance. The dose-response curves were determined of the investigative substances with a concentration of 10^−5 M to 10^−14 M (1:10 dilutions). Incubation times of between 48 hours and 96 hours were chosen. The proliferation was detected by means of the MTT assay (ATCC, Manassas, Va., USA, catalogue no. 30-1010K). After completion of selected incubation period the MTT reagent was incubated with the cells for 4 hours before lysis occurred over night by measuring out the detergent. The created stain was detected at 570 nm. The proliferation of the cells, which were treated identically to the other cells but without the test substance, was defined as the 100% value. The data obtained from this test represent triple determinations and at least two experiments had been carried out independently of each other.
Structure (SMILES),IC50 [1] [nM],IC50 (HT-29 wt cell line) [nM]
"CC[C@H](C)[C@@H]([C@@H](CC(=O)N1CCC[C@H]1[C@H](OC)[C@@H](C)C(=O)N[C@@]1(C(=O)OCc2ccccc2)C[C@@H]1c1ccccc1)OC)N(C)C(=O)[C@@H](NC(=O)[C@H](C(C)C)N(C)CCCC(=O)O)C(C)C [Example 10, N-(3-carboxypropyl)-N-methyl-L-valyl-N-[(3R,4S,5S)-1-{(2S)-2-[(1R,2R)-3-({(1S,2R)-1-[(benzyloxy)carbonyl]-2-phenylcyclopropyl}amino)-1-methoxy-2-methyl-3-oxopropyl]pyrrolidin-1-yl}-3-methoxy-5-methyl-1-oxoheptan-4-yl]-N-methyl-L-valinamide]",81,–
"CC[C@H](C)[C@@H]([C@@H](CC(=O)N1CCC[C@H]1[C@H](OC)[C@@H](C)C(=O)N[C@H](C(=O)OCc1ccccc1)[C@@H](C)c1ccccc1)OC)N(C)C(=O)[C@@H](NC(=O)[C@H](C(C)C)N(C)CCCC(=O)O)C(C)C [Example 6, N-(3-carboxypropyl)-N-methyl-L-valyl-N-[(3R,4S,5S)-1-{(2S)-2-[(1R,2R)-3-{[(2S,3S)-1-(benzyloxy)-1-oxo-3-phenylbutane-2-yl]amino}-1-methoxy-2-methyl-3-oxopropyl]pyrrolidin-1-yl}-3-methoxy-5-methyl-1-oxoheptan-4-yl]-N-methyl-L-valinamide]",1.1,0.4
"CC[C@H](C)[C@@H]([C@@H](CC(=O)N1CCC[C@H]1[C@H](OC)[C@@H](C)C(=O)N[C@@H](Cc1ccccc1)C(=O)OCc1ccccc1)OC)N(C)C(=O)[C@@H](NC(=O)[C@H](C(C)C)N(C)CCCC(=O)O)C(C)C [Example 5, N-(3-carboxypropyl)-N-methyl-L-valyl-N-[(3R,4S,5S)-1-{(2S)-2-[(1R,2R)-3-{[(2S)-1-(benzyloxy)-1-oxo-3-phenylpropan-2-yl]amino}-1-methoxy-2-methyl-3-oxopropyl]pyrrolidin-1-yl}-3-methoxy-5-methyl-1-oxoheptan-4-yl]-N-methyl-L-valinamide] ({NMeVal(N-(CH2)3COOH)}-V[Dil][Dolaproine]F-OBn)",0.2,–
"CC[C@H](C)[C@@H]([C@@H](CC(=O)N1CCC[C@H]1[C@H](OC)[C@@H](C)C(=O)N[C@@H](Cc1ccccc1)C(=O)OC12CC3CC(CC(C3)C1)C2)OC)N(C)C(=O)[C@@H](NC(=O)[C@H](C(C)C)N(C)CCCC(=O)O)C(C)C [Example 2, N-(3-carboxypropyl)-N-methyl-L-valyl-N-[(3R,4S,5S)-1-{(2S)-2-[(1R,2R)-3-{[(2S)-1-(adamantane-1-yloxyy)-1-oxo-3-phenylpropane-2-yl]amino}-1-methoxy-2-methyl-3-oxopropyl]pyrrolidin-1-yl}-3-methoxy-5-methyl-1-oxoheptan-4-yl]-N-methyl-L-valinamide] ({NMeVal(N-(CH2)3COOH)}-V[Dil][Dolaproine]F-X6)",2.2,–
"CC[C@H](C)[C@@H]([C@@H](CC(=O)N1CCC[C@H]1[C@H](OC)[C@@H](C)C(=O)N[C@@H](Cc1ccccc1)C(=O)NCc1ccccc1)OC)N(C)C(=O)[C@@H](NC(=O)[C@H](C(C)C)N(C)CCCC(=O)O)C(C)C [Example 15, N-(3-carboxypropyl)-N-methyl-L-valyl-N-[(3R,4S,5S)-1-{(2S)-2-[(1R,2R)-3-{[(2S)-1-(benzylamino)-1-oxo-3-phenylpropan-2-yl]amino}-1-methoxy-2-methyl-3-oxopropyl]pyrrolidin-1-yl}-3-methoxy-5-methyl-1-oxoheptan-4-yl]-N-methyl-L-valinamide] ({NMeVal(N-(CH2)3COOH)}-V[Dil][Dolaproine]F-NHBn)",0.9,–
"CC[C@H](C)[C@@H]([C@@H](CC(=O)N1CCC[C@H]1[C@H](OC)[C@@H](C)C(=O)N[C@@H](Cc1ccccc1)C(=O)OCc1cccc2ccccc12)OC)N(C)C(=O)[C@@H](NC(=O)[C@H](C(C)C)N(C)CCCC(=O)O)C(C)C [Example 1, N-(3-carboxypropyl)-N-methyl-L-valyl-N-[(3R,4S,5S)-3-methoxy-1-{(2S)-2-[(1R,2R)-1-methoxy-2-methyl-3-{[(2S)-1-(1-naphthylmethoxy)-1-oxo-3-phenylpropane-2-yl]amino}-3-oxopropyl]pyrrolidin-1-yl}-5-methyl-1-oxoheptan-4-yl]-N-methyl-L-valinamide] ({NMeVal(N-(CH2)3COOH)}-V[Dil][Dolaproine]F-X2)",1.1,0.1
"CC[C@H](C)[C@@H]([C@@H](CC(=O)N1CCC[C@H]1[C@H](OC)[C@@H](C)C(=O)N[C@H](COCc1ccc(C(=O)OC)cc1)Cc1ccccc1)OC)N(C)C(=O)[C@@H](NC(=O)[C@H](C(C)C)N(C)CCCC(=O)O)C(C)C [Example 26, N-(3-carboxypropyl)-N-methyl-L-valyl-N-[(3R,4S,5S)-3-methoxy-1-{(2S)-2-[(1R,2R)-1-methoxy-3-{[(2S)-1-{[4-(methoxycarbonyl)benzyl]oxy}-3-phenylpropane-2-yl]amino}-2-methyl-3-oxopropyl]pyrrolidin-1-yl}-5-methyl-1-oxoheptan-4-yl]-N-methyl-L-valinamide]",10,1.5
"CC[C@H](C)[C@@H]([C@@H](CC(=O)N1CCC[C@H]1[C@H](OC)[C@@H](C)C(=O)N[C@@H](Cc1ccccc1)C(=O)N(C)Cc1ccccc1)OC)N(C)C(=O)[C@@H](NC(=O)[C@H](C(C)C)N(C)CCCC(=O)O)C(C)C [Example 9, N-(3-carboxypropyl)-N-methyl-L-valyl-N-[(3R,4S,5S)-1-{(2S)-2-[(1R,2R)-3-({(2S)-1-[benzyl(methyl)amino]-1-oxo-3-phenylpropane-2-yl}amino)-1-methoxy-2-methyl-3-oxopropyl]pyrrolidin-1-yl}-3-methoxy-5-methyl-1-oxoheptan-4-yl]-N-methyl-L-valinamide] ({NMeVal(N-(CH2)3COOH)}-V[Dil][Dolaproine]F-{NMe(benzyl)})",53,4.4
"CC[C@H](C)[C@@H]([C@@H](CC(=O)N1CCC[C@H]1[C@H](OC)[C@@H](C)C(=O)N[C@H](C(=O)NCc1ccccc1)[C@@H](C)O)OC)N(C)C(=O)[C@@H](NC(=O)[C@H](C(C)C)N(C)CCCC(=O)O)C(C)C [Example 25, N-(3-carboxypropyl)-N-methyl-L-valyl-N-[(3R,4S,5S)-1-{(2S)-2-[(1R,2R)-3-{[(2S,3R)-1-(benzylamino)-3-hydroxy-1-oxobutane-2-yl]amino}-1-methoxy-2-methyl-3-oxopropyl]pyrrolidin-1-yl}-3-methoxy-5-methyl-1-oxoheptan-4-yl]-N-methyl-L-valinamide] ({NMeVal(N-(CH2)3COOH)}-V[Dil][Dolaproine]T-NHBn)",164,1.5
"CC[C@H](C)[C@@H]([C@@H](CC(=O)N1CCC[C@H]1[C@H](OC)[C@@H](C)C(=O)N[C@@H](Cc1c[nH]c2ccccc12)C(=O)NCc1ccccc1)OC)N(C)C(=O)[C@@H](NC(=O)[C@H](C(C)C)N(C)CCCCCC(=O)O)C(C)C [Example 28, N-(5-carboxypentyl)-N-methyl-L-valyl-N-[(3R,4S,5S)-1-{(2S)-2-[(1R,2R)-3-{[(2S)-1-(benzylamino)-3-(1H-indol-3-yl)-1-oxopropane-2-yl]amino}-1-methoxy-2-methyl-3-oxopropyl]pyrrolidin-1-yl}-3-methoxy-5-methyl-1-oxoheptan-4-yl]-N-methyl-L-valinamide] (X3-V[Dil][Dolaproine]W-NHBn)",–,1.3
"CC[C@H](C)[C@@H]([C@@H](CC(=O)N1CCC[C@H]1[C@H](OC)[C@@H](C)C(=O)N[C@@H](Cc1ccccc1)C(=O)OC(C)(C)C)OC)N(C)C(=O)[C@@H](NC(=O)[C@H](C(C)C)N(C)CCCC(=O)O)C(C)C [Example 20, N-(3-carboxypropyl)-N-methyl-L-valyl-N-[(3R,4S,5S)-1-{(2S)-2-[(1R,2R)-3-{[(2S)-1-tert.-butoxy-1-oxo-3-phenylpropane2-yl]amino}-1-methoxy-2-methyl-3-oxopropyl]pyrrolidin-1-yl}-3-methoxy-5-methyl-1-oxoheptan-4-yl]-N-methyl-L-valinamide] ({NMeVal(N-(CH2)3COOH)}-V[Dil][Dolaproine]F-OtBu)",0.3,–
"CC[C@H](C)[C@@H]([C@@H](CC(=O)N1CCC[C@H]1[C@H](OC)[C@@H](C)C(=O)N[C@@H](Cc1ccccc1)C(=O)OCC12CC3CC(CC(C3)C1)C2)OC)N(C)C(=O)[C@@H](NC(=O)[C@H](C(C)C)N(C)CCCC(=O)O)C(C)C [Example 3, N-(3-carboxypropyl)-N-methyl-L-valyl-N-[(3R,4S,5S)-1-{(2S)-2-[(1R,2R)-3-{[(2S)-1-(adamantane-1-ylmethoxy)-1-oxo-3-phenylpropane-2-yl]amino}-1-methoxy-2-methyl-3-oxopropyl]pyrrolidin-1-yl}-3-methoxy-5-methyl-1-oxoheptan-4-yl]-N-methyl-L-valinamide] ({NMeVal(N-(CH2)3COOH)}-V[Dil][Dolaproine]F-X4)",0.7,–
